Paper PMC6704710, “Preclinical evaluation of 3D185, a novel potent inhibitor of FGFR1/2/3 and CSF-1R, in FGFR-dependent and macrophage-dominant cancer models” (Journal of Experimental & Clinical Cancer Research : CR, 2019)

Key:
Test in all cases: Eurofins kinase panel
Assay type in all cases: biochemical
Conditions in all cases: read-out: Inhibition rate (%)
CaMKIß(h) = biological target: T1, CaMKIß(h) (Homo sapiens, UniProt Q6P2M8)
T1 construct: purchased Eurofins (KinaseProfiler)

BrSK1(h) = biological target: T2, BrSK1(h) (Homo sapiens, UniProt Q8TDC3)
T2 construct: purchased Eurofins (KinaseProfiler)
T2 sequence (Q8TDC3 1-778): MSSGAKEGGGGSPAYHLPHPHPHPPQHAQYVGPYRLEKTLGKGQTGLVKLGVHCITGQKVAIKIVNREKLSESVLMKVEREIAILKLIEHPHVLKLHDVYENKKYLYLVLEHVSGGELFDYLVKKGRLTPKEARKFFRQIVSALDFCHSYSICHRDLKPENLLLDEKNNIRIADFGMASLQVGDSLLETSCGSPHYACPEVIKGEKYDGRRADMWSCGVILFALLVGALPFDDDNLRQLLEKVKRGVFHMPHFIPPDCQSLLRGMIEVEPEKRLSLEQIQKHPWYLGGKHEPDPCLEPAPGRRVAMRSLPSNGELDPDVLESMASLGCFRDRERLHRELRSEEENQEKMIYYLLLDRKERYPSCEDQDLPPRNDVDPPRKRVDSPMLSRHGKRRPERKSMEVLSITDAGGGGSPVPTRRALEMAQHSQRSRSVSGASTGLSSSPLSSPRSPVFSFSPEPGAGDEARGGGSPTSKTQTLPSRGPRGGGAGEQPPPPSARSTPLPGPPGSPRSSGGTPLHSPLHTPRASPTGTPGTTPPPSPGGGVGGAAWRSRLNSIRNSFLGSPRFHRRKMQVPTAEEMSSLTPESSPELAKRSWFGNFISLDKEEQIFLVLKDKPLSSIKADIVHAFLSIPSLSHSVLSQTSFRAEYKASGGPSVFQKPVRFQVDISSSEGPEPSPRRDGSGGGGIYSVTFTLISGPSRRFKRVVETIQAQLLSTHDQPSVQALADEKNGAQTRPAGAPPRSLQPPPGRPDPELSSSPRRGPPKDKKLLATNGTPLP

CLK4(h) = biological target: T3, CLK4(h) (Homo sapiens, UniProt Q9HAZ1)
T3 construct: purchased Eurofins (KinaseProfiler)
T3 sequence (Q9HAZ1 whole entry): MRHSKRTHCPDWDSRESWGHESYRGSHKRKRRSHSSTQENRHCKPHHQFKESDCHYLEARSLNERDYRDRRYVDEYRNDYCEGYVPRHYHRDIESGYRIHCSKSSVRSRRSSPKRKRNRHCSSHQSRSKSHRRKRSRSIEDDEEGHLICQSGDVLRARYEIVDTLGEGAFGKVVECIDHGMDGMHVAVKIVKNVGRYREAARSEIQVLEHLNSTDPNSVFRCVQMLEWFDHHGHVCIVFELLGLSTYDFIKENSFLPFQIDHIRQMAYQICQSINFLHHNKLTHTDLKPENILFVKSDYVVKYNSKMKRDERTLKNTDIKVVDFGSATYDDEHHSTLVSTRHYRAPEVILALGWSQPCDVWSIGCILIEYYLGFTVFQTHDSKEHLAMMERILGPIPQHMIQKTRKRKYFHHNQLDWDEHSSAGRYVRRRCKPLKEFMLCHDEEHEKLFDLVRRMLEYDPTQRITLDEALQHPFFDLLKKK

CLK1(h) = biological target: T4, CLK1(h) (Homo sapiens, UniProt P49759)
T4 construct: purchased Eurofins (KinaseProfiler)
T4 sequence (P49759 whole entry): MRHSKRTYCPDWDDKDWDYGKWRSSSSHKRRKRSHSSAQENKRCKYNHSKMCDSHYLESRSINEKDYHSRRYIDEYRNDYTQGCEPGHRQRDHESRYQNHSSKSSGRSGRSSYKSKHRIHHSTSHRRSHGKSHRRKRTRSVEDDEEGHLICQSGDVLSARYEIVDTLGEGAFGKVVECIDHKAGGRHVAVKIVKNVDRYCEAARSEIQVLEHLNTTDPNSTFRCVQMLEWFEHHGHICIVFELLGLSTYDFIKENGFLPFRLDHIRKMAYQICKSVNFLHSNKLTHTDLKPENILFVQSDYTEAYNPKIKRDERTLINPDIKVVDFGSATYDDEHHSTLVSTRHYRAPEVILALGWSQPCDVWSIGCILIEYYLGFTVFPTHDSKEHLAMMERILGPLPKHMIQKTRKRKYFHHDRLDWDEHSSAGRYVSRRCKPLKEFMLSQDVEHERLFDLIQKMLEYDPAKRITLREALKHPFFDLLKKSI

MYO3B(h) = biological target: T5, MYO3B(h) (Homo sapiens, UniProt Q8WXR4)
T5 construct: purchased Eurofins (KinaseProfiler)
T5 sequence (Q8WXR4 1-1341): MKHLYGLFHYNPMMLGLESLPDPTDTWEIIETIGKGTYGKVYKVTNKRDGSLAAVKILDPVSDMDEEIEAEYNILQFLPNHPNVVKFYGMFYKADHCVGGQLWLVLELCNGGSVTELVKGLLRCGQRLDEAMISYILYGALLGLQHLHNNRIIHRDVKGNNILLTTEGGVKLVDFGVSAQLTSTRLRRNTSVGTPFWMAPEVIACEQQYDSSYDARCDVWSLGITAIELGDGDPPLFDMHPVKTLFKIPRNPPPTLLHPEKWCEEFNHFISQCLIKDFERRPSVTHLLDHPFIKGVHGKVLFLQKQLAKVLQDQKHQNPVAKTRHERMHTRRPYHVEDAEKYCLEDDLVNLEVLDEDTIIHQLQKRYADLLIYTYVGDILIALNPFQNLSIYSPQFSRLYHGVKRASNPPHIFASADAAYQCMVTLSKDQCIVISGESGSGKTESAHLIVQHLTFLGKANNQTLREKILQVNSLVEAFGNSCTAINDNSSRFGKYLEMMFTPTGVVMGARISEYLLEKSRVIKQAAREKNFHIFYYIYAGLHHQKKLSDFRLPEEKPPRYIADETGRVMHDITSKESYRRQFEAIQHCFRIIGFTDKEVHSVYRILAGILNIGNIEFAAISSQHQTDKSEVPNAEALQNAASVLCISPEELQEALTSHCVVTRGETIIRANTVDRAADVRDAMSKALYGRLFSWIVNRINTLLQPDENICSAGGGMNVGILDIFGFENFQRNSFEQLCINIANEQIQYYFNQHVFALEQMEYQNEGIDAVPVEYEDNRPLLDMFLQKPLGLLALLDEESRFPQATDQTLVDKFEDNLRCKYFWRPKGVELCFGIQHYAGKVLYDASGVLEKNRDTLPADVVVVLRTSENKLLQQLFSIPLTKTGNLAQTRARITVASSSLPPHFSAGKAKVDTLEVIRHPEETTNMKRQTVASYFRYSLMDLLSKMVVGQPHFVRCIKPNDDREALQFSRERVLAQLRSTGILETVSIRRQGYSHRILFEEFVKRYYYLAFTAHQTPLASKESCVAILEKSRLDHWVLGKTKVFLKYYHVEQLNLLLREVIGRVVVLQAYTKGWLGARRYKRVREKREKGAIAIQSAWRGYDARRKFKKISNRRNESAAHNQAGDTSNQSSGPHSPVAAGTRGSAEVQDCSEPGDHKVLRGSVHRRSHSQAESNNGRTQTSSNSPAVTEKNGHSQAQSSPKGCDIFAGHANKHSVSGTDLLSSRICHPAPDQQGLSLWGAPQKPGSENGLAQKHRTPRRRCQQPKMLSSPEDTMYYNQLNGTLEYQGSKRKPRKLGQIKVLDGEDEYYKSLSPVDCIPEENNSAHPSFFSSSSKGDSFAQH

Src(1-530)(h) = biological target: T6, Src(1-530)(h) (Homo sapiens, UniProt P12931)
T6 construct: purchased Eurofins (KinaseProfiler)
T6 sequence (P12931 1-530 limits assumed): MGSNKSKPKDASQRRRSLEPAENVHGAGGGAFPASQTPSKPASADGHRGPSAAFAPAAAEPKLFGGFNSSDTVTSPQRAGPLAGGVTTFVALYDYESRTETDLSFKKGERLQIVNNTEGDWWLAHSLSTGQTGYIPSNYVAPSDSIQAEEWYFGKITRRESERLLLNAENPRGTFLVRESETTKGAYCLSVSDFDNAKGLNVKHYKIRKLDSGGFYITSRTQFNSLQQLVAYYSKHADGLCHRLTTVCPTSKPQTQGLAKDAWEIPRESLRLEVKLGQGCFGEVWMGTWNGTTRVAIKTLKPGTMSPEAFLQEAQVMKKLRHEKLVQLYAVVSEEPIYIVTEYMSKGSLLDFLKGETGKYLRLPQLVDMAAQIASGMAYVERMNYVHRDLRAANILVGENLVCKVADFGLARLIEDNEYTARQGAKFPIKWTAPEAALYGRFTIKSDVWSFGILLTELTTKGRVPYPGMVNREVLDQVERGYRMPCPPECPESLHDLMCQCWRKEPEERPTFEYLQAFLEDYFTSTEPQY

CK2(h) = biological target: T7, CK2(h) (Homo sapiens, UniProt P68400)
T7 construct: purchased Eurofins (KinaseProfiler)
T7 sequence (P68400 whole entry): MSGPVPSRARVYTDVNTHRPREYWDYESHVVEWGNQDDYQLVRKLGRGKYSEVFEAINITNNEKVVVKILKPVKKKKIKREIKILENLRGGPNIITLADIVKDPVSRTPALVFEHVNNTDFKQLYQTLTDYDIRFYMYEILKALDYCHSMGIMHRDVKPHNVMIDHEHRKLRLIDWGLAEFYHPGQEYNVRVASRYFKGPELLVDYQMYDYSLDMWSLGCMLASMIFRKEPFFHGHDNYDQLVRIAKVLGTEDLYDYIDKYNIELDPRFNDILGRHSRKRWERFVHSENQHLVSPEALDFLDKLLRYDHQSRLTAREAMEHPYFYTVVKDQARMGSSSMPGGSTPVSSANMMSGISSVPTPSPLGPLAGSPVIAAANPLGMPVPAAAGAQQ
T7 sequence (P67870 whole entry partner): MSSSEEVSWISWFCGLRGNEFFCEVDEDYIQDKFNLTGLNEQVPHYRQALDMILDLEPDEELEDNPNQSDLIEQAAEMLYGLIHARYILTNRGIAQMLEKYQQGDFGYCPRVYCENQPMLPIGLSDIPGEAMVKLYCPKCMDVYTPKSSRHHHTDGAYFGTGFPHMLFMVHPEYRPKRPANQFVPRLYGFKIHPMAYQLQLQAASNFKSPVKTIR

STK32C(h) = biological target: T8, STK32C(h) (Homo sapiens, UniProt Q86UX6)
T8 construct: purchased Eurofins (KinaseProfiler)
T8 sequence (Q86UX6 whole entry): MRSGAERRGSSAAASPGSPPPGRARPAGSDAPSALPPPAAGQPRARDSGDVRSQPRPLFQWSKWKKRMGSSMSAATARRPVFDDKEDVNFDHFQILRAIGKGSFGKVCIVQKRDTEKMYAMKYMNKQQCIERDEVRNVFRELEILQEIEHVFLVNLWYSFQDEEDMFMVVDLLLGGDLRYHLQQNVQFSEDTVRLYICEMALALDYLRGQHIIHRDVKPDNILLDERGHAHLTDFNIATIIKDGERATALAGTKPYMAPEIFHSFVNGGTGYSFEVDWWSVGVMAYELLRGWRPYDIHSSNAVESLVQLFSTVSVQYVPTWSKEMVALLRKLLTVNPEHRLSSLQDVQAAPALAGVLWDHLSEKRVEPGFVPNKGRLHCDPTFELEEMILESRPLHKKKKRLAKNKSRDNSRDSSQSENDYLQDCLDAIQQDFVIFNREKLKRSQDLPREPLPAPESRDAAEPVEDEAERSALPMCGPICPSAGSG

T1 sequence (Q6P2M8 whole entry): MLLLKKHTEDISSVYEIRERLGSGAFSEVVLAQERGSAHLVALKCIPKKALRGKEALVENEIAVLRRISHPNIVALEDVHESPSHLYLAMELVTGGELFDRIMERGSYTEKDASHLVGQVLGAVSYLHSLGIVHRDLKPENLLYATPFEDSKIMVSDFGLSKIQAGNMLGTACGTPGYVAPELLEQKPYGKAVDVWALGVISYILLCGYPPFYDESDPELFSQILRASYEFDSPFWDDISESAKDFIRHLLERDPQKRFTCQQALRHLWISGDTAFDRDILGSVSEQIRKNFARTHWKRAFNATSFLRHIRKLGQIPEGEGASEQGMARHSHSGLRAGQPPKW

COc1cc(OC)c(Cl)c(-c2ccc3c(NC(=O)c4ccc(N5CCNC(C)(C)C5)cc4)n[nH]c3n2)c1Cl [3D185]
inhibition at 0.01 µM (CaMKIß(h); 10 nM): -2% | inhibition at 0.1 µM (CaMKIß(h); 100 nM): 6% | inhibition at 1 µM (CaMKIß(h); 1000 nM): 32% | inhibition at 0.01 µM (BrSK1(h); 10 nM): 13% | inhibition at 0.1 µM (BrSK1(h); 100 nM): 11% | inhibition at 1 µM (BrSK1(h); 1000 nM): 11% | inhibition at 0.01 µM (CLK4(h); 10 nM): 5% | inhibition at 0.1 µM (CLK4(h); 100 nM): 19% | inhibition at 1 µM (CLK4(h); 1000 nM): 27% | inhibition at 0.01 µM (CLK1(h); 10 nM): -7% | inhibition at 0.1 µM (CLK1(h); 100 nM): -5% | inhibition at 1 µM (CLK1(h); 1000 nM): 7% | inhibition at 0.01 µM (MYO3B(h); 10 nM): -4% | inhibition at 0.1 µM (MYO3B(h); 100 nM): 0% | inhibition at 1 µM (MYO3B(h); 1000 nM): 7% | inhibition at 0.01 µM (Src(1-530)(h); 10 nM): 4% | inhibition at 0.1 µM (Src(1-530)(h); 100 nM): 30% | inhibition at 1 µM (Src(1-530)(h); 1000 nM): 82% | inhibition at 0.01 µM (CK2(h); 10 nM): 2% | inhibition at 0.1 µM (CK2(h); 100 nM): 9% | inhibition at 1 µM (CK2(h); 1000 nM): 9% | inhibition at 0.01 µM (STK32C(h); 10 nM): 11% | inhibition at 0.1 µM (STK32C(h); 100 nM): 8% | inhibition at 1 µM (STK32C(h); 1000 nM): 7%
